Measured values taken from ChEMBL document CHEMBL1201862, “PubChem BioAssay data set” (2004).
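Five concentrations, 48 hours, 96-well plates. Abbreviation: GI50, concentration required for 50% inhibition of growth.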 Calls of active or inactive are those of the source. Rule as the data show it: active = GI50 up to about 1.1 µM and inactive = higher.

How the values were obtained:
Assay in all cases: NCI anticancer screen, dose series, 48 h
CAKI-1 = system: CAKI-1
CCRF-CEM = system: CCRF-CEM
EKVX = system: EKVX
HT-29 = system: HT-29
IGROV-1 = system: IGROV-1
K562 = system: K562
LOX IMVI = system: LOX IMVI
MCF7 = system: MCF7
OVCAR-3 = system: OVCAR-3
OVCAR-5 = system: OVCAR-5
OVCAR-8 = system: OVCAR-8
SK-MEL-28 = system: SK-MEL-28
SK-OV-3 = system: SK-OV-3
SN12C = system: SN12C
SW-620 = system: SW-620
UACC-257 = system: UACC-257
UO-31 = system: UO-31
ACHN = system: ACHN
MDA-N = system: MDA-N
SR = system: SR

Q: What does the source list for `COc1cc(C2c3cc4c(cc3[C@@H](Nc3ccc(Oc5ccccc5)cc3)C3COC(=O)[C@H]23)OCO4)cc(OC)c1O` (stereo not given in full)?
A: GI50 (CAKI-1): 1.35 µM (inactive); GI50 (CCRF-CEM): 0.431 µM (active); GI50 (EKVX): > 39.7 µM (inactive); GI50 (HT-29): 1.74 µM (inactive); GI50 (IGROV-1): 4.38 µM (inactive); GI50 (K562): 1.14 µM (inactive); GI50 (LOX IMVI): 2.43 µM (inactive); GI50 (MCF7): 0.4 µM (active); GI50 (OVCAR-3): > 62.2 µM (inactive); GI50 (OVCAR-5): > 61 µM (inactive); GI50 (OVCAR-8): 4.5 µM (inactive); GI50 (SK-MEL-28): > 42.3 µM (inactive); GI50 (SK-OV-3): 4.93 µM (inactive); GI50 (SN12C): 2.7 µM (inactive); GI50 (SW-620): 2.07 µM (inactive); GI50 (UACC-257): 1.22 µM (inactive); GI50 (UO-31): 2.59 µM (inactive)

Q: Which results are given for `COc1cc(/N=N\c2cccc(S(=O)(=O)O)c2)ccc1/N=N\c1ccc(/C=C/c2ccc(-n3on3-c3ccc(/C=C/c4ccc(/N=N/c5ccc(/N=N\c6cccc(S(=O)(=O)O)c6)cc5OC)cc4S(=O)(=O)O)c(S(=O)(=O)O)c3)cc2S(=O)(=O)O)c(S(=O)(=O)O)c1`?
A: GI50 (CCRF-CEM): > 100 µM (inactive); GI50 (EKVX): > 100 µM (inactive); GI50 (HT-29): > 100 µM (inactive); GI50 (IGROV-1): > 100 µM (inactive); GI50 (K562): > 100 µM (inactive); GI50 (LOX IMVI): > 100 µM (inactive); GI50 (MCF7): > 100 µM (inactive); GI50 (OVCAR-3): > 100 µM (inactive); GI50 (OVCAR-5): > 100 µM (inactive); GI50 (OVCAR-8): > 100 µM (inactive); GI50 (SK-MEL-28): > 100 µM (inactive); GI50 (SK-OV-3): > 100 µM (inactive); GI50 (SN12C): > 100 µM (inactive); GI50 (SW-620): > 100 µM (inactive); GI50 (UACC-257): > 100 µM (inactive); GI50 (UO-31): > 100 µM (inactive)

Q: For `CNC(=O)OCC1=C(COC(=O)NC)CN(c2ccc(OC)cc2)C1`, which GI50 (ACHN) is on record?
A: > 100 µM (inactive)

Q: What about the GI50 (CCRF-CEM) of the same compound?
A: > 100 µM (inactive)

Q: What about the GI50 (EKVX) of the same compound?
A: > 100 µM (inactive)

Q: What about the GI50 (HT-29) of the same compound?
A: > 100 µM (inactive)

Q: And the GI50 (IGROV-1)?
A: > 100 µM (inactive)

Q: What about the GI50 (K562) of the same compound?
A: > 100 µM (inactive)

Q: What about the GI50 (LOX IMVI) of the same compound?
A: > 100 µM (inactive)

Q: And the GI50 (MCF7)?
A: > 100 µM (inactive)

Q: And the GI50 (MDA-N)?
A: > 100 µM (inactive)

Q: What about the GI50 (OVCAR-3) of the same compound?
A: > 100 µM (inactive)

Q: And the GI50 (OVCAR-5)?
A: > 100 µM (inactive)

Q: What about the GI50 (OVCAR-8) of the same compound?
A: > 100 µM (inactive)

Q: And the GI50 (SK-MEL-28)?
A: > 100 µM (inactive)

Q: What about the GI50 (SK-OV-3) of the same compound?
A: > 100 µM (inactive)

Q: What about the GI50 (SN12C) of the same compound?
A: > 100 µM (inactive)

Q: What about the GI50 (SR) of the same compound?
A: > 100 µM (inactive)

Q: What about the GI50 (SW-620) of the same compound?
A: > 100 µM (inactive)

Q: What about the GI50 (UACC-257) of the same compound?
A: > 100 µM (inactive)

Q: And the GI50 (UO-31)?
A: 80.9 µM (inactive)

Q: What does the source list for `COC(=O)C(C)NP(=O)(N1CC1)N1CC1` (stereo not given)?
A: GI50 (ACHN): 27.9 µM (inactive); GI50 (CAKI-1): > 100 µM (inactive); GI50 (CCRF-CEM): 47.6 µM (inactive); GI50 (EKVX): > 100 µM (inactive); GI50 (HT-29): > 100 µM (inactive); GI50 (IGROV-1): > 100 µM (inactive); GI50 (K562): > 100 µM (inactive); GI50 (LOX IMVI): 80 µM (inactive); GI50 (OVCAR-5): > 100 µM (inactive); GI50 (OVCAR-8): > 100 µM (inactive); GI50 (SK-MEL-28): > 100 µM (inactive); GI50 (SK-OV-3): > 100 µM (inactive); GI50 (SN12C): 73.6 µM (inactive); GI50 (SW-620): > 100 µM (inactive); GI50 (UACC-257): > 100 µM (inactive); GI50 (UO-31): > 100 µM (inactive)

Q: Which GI50 (ACHN) does the source give for `O=C(Nc1ccc2[nH]c3c(-c4ccccc4)nccc3c2c1)c1ccccc1[N+](=O)[O-]` here?
A: 3.94 µM (inactive)

Q: And the GI50 (CAKI-1)?
A: 5.74 µM (inactive)

Q: And the GI50 (CCRF-CEM)?
A: 5.93 µM (inactive)

Q: And the GI50 (EKVX)?
A: 3.22 µM (inactive)

Q: What about the GI50 (HT-29) of the same compound?
A: 1.85 µM (inactive)

Q: And the GI50 (IGROV-1)?
A: 5.4 µM (inactive)

Q: What about the GI50 (K562) of the same compound?
A: 4.06 µM (inactive)

Q: And the GI50 (LOX IMVI)?
A: 2.92 µM (inactive)

Q: And the GI50 (OVCAR-5)?
A: 2.17 µM (inactive)

Q: What about the GI50 (OVCAR-8) of the same compound?
A: 8.11 µM (inactive)

Q: And the GI50 (SK-MEL-28)?
A: 4.95 µM (inactive)

Q: What about the GI50 (SN12C) of the same compound?
A: 64.6 µM (inactive)

Q: And the GI50 (SR)?
A: 1.85 µM (inactive)

Q: And the GI50 (SW-620)?
A: 5.06 µM (inactive)

Q: And the GI50 (UACC-257)?
A: 4.11 µM (inactive)

Q: What does the source list for `CCOC(=O)Cc1cnc(NC(NC(=O)CC)(C(F)(F)F)C(F)(F)F)s1`?
A: GI50 (ACHN): > 100 µM (inactive); GI50 (CCRF-CEM): > 100 µM (inactive); GI50 (EKVX): > 100 µM (inactive); GI50 (HT-29): > 100 µM (inactive); GI50 (K562): > 100 µM (inactive); GI50 (LOX IMVI): > 100 µM (inactive); GI50 (MCF7): > 100 µM (inactive); GI50 (MDA-N): > 100 µM (inactive); GI50 (OVCAR-3): > 100 µM (inactive); GI50 (OVCAR-5): > 100 µM (inactive); GI50 (SK-MEL-28): > 100 µM (inactive); GI50 (SK-OV-3): > 100 µM (inactive); GI50 (SN12C): > 100 µM (inactive); GI50 (SR): > 100 µM (inactive); GI50 (UACC-257): > 100 µM (inactive); GI50 (UO-31): > 100 µM (inactive)

Q: `N/C(=N\O)N/N=C\c1ccc(O)c(O)c1O` was tested. Which GI50 (CAKI-1) did it give?
A: 29.4 µM (inactive)

Q: What about the GI50 (CCRF-CEM) of the same compound?
A: 17.3 µM (inactive)

Q: What about the GI50 (EKVX) of the same compound?
A: > 78.5 µM (inactive)

Q: And the GI50 (HT-29)?
A: 11.1 µM (inactive)

Q: What about the GI50 (IGROV-1) of the same compound?
A: 57 µM (inactive)

Q: What about the GI50 (K562) of the same compound?
A: 17.8 µM (inactive)

Q: And the GI50 (LOX IMVI)?
A: 16.3 µM (inactive)

Q: What about the GI50 (MCF7) of the same compound?
A: 16.7 µM (inactive)

Q: What about the GI50 (OVCAR-3) of the same compound?
A: 22.7 µM (inactive)

Q: What about the GI50 (OVCAR-5) of the same compound?
A: > 48.1 µM (inactive)

Q: What about the GI50 (OVCAR-8) of the same compound?
A: 30.4 µM (inactive)

Q: And the GI50 (SK-MEL-28)?
A: > 100 µM (inactive)

Q: And the GI50 (SK-OV-3)?
A: > 100 µM (inactive)

Q: What about the GI50 (SN12C) of the same compound?
A: 19.5 µM (inactive)

Q: What about the GI50 (SW-620) of the same compound?
A: 19.7 µM (inactive)

Q: What about the GI50 (UACC-257) of the same compound?
A: 63.7 µM (inactive)

Q: What about the GI50 (UO-31) of the same compound?
A: > 100 µM (inactive)

Q: Which results are given for `CC1(C)N=C(c2ccccc2)SC12S[C@@H]1CCCC[C@H]1S2`?
A: GI50 (ACHN): > 100 µM (inactive); GI50 (CAKI-1): > 100 µM (inactive); GI50 (CCRF-CEM): > 100 µM (inactive); GI50 (EKVX): > 100 µM (inactive); GI50 (HT-29): 94.6 µM (inactive); GI50 (IGROV-1): > 100 µM (inactive); GI50 (K562): > 100 µM (inactive); GI50 (LOX IMVI): > 100 µM (inactive); GI50 (MCF7): 64.4 µM (inactive); GI50 (MDA-N): 20.7 µM (inactive); GI50 (OVCAR-3): > 100 µM (inactive); GI50 (OVCAR-5): > 100 µM (inactive); GI50 (OVCAR-8): > 100 µM (inactive); GI50 (SK-MEL-28): > 100 µM (inactive); GI50 (SK-OV-3): > 100 µM (inactive); GI50 (SN12C): > 100 µM (inactive); GI50 (SW-620): 29.4 µM (inactive); GI50 (UACC-257): 41.5 µM (inactive); GI50 (UO-31): > 100 µM (inactive)
